Test results reported in article PMC6723352, “Exploring Structure-Activity Relationship in Tacrine-Squaramide Derivatives as Potent Cholinesterase Inhibitors” (Biomolecules, 2019).
pIC50: −log10 of the molar value.

Assays:
[1] = for Pe: PAMPA, PBS pH 7.4; for CNS (+/−) predicted BBB permeation: class from Pe
From the text: An important feature for drugs targeting the brain is their ability to cross the BBB. The parallel artificial membrane permeability assay (PAMPA) is a high-throughput screening tool applicable for prediction of passive transport across BBB [57]. […] These include mainly (i) the different composition of the human phospholipid bilayer may cause deviation in predicted permeability, (ii) omitting the absorption of compounds that are actively transported by influx transporters and pumped-out by various efflux mechanisms with the glycoprotein P at the forefront or (iii) transport through the paracellular route which is mostly exploited by small […] molecules. Even considering these drawbacks, PAMPA-BBB is conceived as very simple but powerful tool for BBB prediction.
PAMPA (the parallel artificial membrane permeability assay) is a high-throughput screening tool applicable for prediction of the passive transport of potential drugs across the blood-brain barrier (BBB). In this study, it has been used as a non-cell-based in vitro assay carried out in a coated 96-well membrane filter. The filter membrane of the donor plate was coated with PBL (Polar Brain Lipid, Avanti, USA) in dodecane (4 µl of 20 mg/mL PBL in dodecane) and the acceptor well was filled with 300 µl of phosphate buffer saline, (PBS pH 7.4; VA). The tested compounds were dissolved first in DMSO and then diluted with PBS pH 7.4 to reach the final concentrations 50–500 µM in the donor well. […] In principle, test compound diffuse from the donor well through the polar brain lipid membrane (area = 0.28 cm^2) to the acceptor well. The concentration of the tested compound in both donor and the acceptor wells were assessed after 3, 4, 5 and 6 h of incubation in quadruplicate using the UV plate reader Synergy HT (Biotek, USA) at the maximum absorption wavelength of each compound (n = 3). Besides that, the solution of theoretical compound concentration, simulating the equilibrium state, established if the membrane was ideally permeable was prepared and assessed as well.

[2] = molecular target: human BChE (hBChE), human plasmatic butyrylcholinesterase (Homo sapiens, UniProt P06276); test: hBChE inhibition, modified Ellman's method; format: biochemical; details: mean of at least three experiments; read-out: IC50 hBChE
Experimental: Three series of tacrine-squaramide homodimers were tested for their inhibitory potential against human AChE (hAChE) and human BChE (hBChE) enzymes using modified spectrophotometric method of Ellman et al.. THA, 6-Cl-THA and 7-MEOTA were used as reference compounds.
(§1) Human plasmatic butyrylcholinesterase (BChE; EC 3.1.1.8) and recombinant acetylcholinesterase (AChE; 3.1.1.7) were prepared at the Department of Toxicology and Military Pharmacy. 5,5′-dithiobis(2-nitrobenzoic acid) (Ellman’s reagent, DTNB), phosphate buffer (PB, pH 7.4), acetylthiocholine (ATC) and butyrylthiocholine (BTC), were purchased from Sigma-Aldrich, Prague, Czech Republic. For measuring purposes – polystyrene Nunc 96-well microplates with flat bottom shape (ThermoFisher Scientific, USA) were utilized.
(§2) All the assays were carried out in 0.1 M KH2PO4/K2HPO4 buffer, pH 7.4. Enzyme solutions were prepared at 2.0 units/mL in 2 mL aliquots. The assay medium (100 µL) consisted of 40 µL of 0.1 M phosphate buffer (pH 7.4), 20 µL of 0.01 M DTNB, 10 µL of the enzyme, and 20 µL of 0.01 M substrate (ATC/BTC iodide solution).
(§3) Tested compounds were preincubated for 5 min. The reaction was started by immediate addition of 20 µL of the substrate. The activity was determined by measuring the increase in absorbance at 412 for AChE/BChE at 37 °C at 2 min intervals - using a Multi-mode microplate reader Synergy 2 (Winooski, VT, USA). Each concentration was assayed in triplicate. Software GraphPad Prizm 5 (San Diego, CA, USA) was used for the statistical data evaluation.

in vitro = details: human
Experimental: The human origin cell line HepG2 (ATCC, Mannassas, VA, USA) isolated from liver hepatocellular carcinoma was used to evaluate cytotoxicity of tested compounds. The cells were cultivated in Dublecco’s modified Eagle’s medium (DMEM; Biosera, Nuaille, France) supplemented with 10% fetal bovine serum (Biosera) and 1% penicillin-streptomycin antibiotic solution (Sigma-Aldrich, St. Louis, MO, USA), incubated at 37 °C in a CO2 incubator (Binder CO2 incubator BC 160, Tuttlingen, Germany) and routinely passaged by trypsinization at 75–85% confluence.
The final concentration of DMSO was less than 0.25% per well.
After 24-h incubation, the medium containing serially diluted substances was aspirated from each well and replaced by 100 µL of fresh medium containing MTT (0.5 mg/mL). Plates were subsequently incubated at 37 °C in CO2 incubator for 45 min. The medium containing MTT was then aspirated and formazan dissolved in 100 μL of DMSO. The optical density of each well was measured using Synergy 2 Multi-Mode Microplate Reader (BioTek Instruments, Inc., Winooski, VT, USA) at 570 nm. The cell viability was expressed as the percentage of untreated control. Each experiment was performed in triplicate and repeated three independent times.
The IC50 values were expressed as a mean ± standard error of the mean (SEM).

[3] = molecular target: T1, human AChE (hAChE), recombinant acetylcholinesterase (Homo sapiens, UniProt P22303); test: hAChE inhibition, modified Ellman's method; format: biochemical; details: for SI (selectivity index for hAChE): ratio IC50(hBChE)/IC50(hAChE)
T1 construct: made in house
Experimental: Three series of tacrine-squaramide homodimers were tested for their inhibitory potential against human AChE (hAChE) and human BChE (hBChE) enzymes using modified spectrophotometric method of Ellman et al.. THA, 6-Cl-THA and 7-MEOTA were used as reference compounds. […].
as §1, §2, §3

T1 sequence (P22303 32-614): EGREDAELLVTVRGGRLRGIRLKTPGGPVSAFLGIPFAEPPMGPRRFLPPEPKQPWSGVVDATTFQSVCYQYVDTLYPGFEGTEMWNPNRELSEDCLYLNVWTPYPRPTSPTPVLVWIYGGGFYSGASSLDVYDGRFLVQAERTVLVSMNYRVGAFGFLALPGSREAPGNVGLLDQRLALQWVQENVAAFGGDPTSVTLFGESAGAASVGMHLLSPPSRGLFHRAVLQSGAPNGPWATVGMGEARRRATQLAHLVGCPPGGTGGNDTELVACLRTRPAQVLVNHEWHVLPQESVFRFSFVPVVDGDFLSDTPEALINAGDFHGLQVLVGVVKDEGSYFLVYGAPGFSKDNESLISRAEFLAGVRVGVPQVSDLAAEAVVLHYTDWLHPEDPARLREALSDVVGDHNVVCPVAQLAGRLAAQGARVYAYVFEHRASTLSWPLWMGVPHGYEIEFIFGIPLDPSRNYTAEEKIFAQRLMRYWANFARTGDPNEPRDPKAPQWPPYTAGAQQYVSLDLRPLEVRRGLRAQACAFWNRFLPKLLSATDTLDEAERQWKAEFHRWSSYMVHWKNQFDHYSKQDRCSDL
Sequence of human BChE (hBChE), human plasmatic butyrylcholinesterase (P06276 29-602): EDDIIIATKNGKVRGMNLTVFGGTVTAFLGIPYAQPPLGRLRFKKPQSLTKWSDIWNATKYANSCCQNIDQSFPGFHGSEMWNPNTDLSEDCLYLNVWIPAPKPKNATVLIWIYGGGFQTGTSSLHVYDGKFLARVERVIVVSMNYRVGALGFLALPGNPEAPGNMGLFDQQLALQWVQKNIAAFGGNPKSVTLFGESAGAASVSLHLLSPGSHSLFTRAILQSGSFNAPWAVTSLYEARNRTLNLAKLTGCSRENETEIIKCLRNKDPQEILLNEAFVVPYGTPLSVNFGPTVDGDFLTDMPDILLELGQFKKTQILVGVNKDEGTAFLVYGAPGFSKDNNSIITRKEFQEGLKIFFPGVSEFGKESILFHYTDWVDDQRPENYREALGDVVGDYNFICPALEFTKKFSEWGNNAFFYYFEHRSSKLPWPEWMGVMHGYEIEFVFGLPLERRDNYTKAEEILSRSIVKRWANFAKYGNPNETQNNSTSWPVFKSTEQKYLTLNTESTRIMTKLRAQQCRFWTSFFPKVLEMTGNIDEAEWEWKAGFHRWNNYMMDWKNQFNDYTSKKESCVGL

| SMILES | Pe [1] [cm/s] | pIC50 [2] | IC50 at 24 h (in vitro) [µM] | pIC50 [3] | SI (selectivity index for hAChE) [3] | CNS (+/−) predicted BBB permeation [1] |
| --- | --- | --- | --- | --- | --- | --- |
| CC(C)Cc1ccc(C(C)C(=O)O)cc1 (centres unmarked) [ibuprofen, reference compound] | 1.2e-05 |  |  |  |  |  |
| COc1ccc2nc3c(c(NCCCCCCNc4c(NCCCCCCNc5c6c(nc7ccc(OC)cc57)CCCC6)c(=O)c4=O)c2c1)CCCC3 [Compound 5e, Bis({6-[(7-methoxy-1,2,3,4-tetrahydroacridin-9-yl)amino]hexyl}amino)cyclobut-3-ene-1,2-dione] |  | 5.96 | 26 | 6.82 | 7.3 |  |
| O=c1c(NCCCCNc2c3c(nc4cc(Cl)ccc24)CCCC3)c(NCCCCNc2c3c(nc4cc(Cl)ccc24)CCCC3)c1=O [Compound 4c, Bis({4-[(6-chloro-1,2,3,4-tetrahydroacridin-9-yl)amino]butyl}amino)cyclobut-3-ene-1,2-dione] |  | 6.77 | > 64 | 8.34 | 37 |  |
| COc1ccc2c3c1O[C@H]1C[C@@H](O)C=C[C@@]31CCN(C)C2 [Galantamine, galantamine, reference compound] |  |  | 4200 |  |  |  |
| O=c1c(NCCCCCNc2c3c(nc4ccccc24)CCCC3)c(NCCCCCNc2c3c(nc4ccccc24)CCCC3)c1=O [Compound 3d, Bis({5-[(1,2,3,4-tetrahydroacridin-9-yl)amino]pentyl}amino)cyclobut-3-ene-1,2-dione] |  | 7.16 | 69 | 8.09 | 8.5 |  |
| O=c1c(NCCCCCCCNc2c3c(nc4cc(Cl)ccc24)CCCC3)c(NCCCCCCCNc2c3c(nc4cc(Cl)ccc24)CCCC3)c1=O [Compound 4f, Bis({7-[(6-chloro-1,2,3,4-tetrahydroacridin-9-yl)amino]heptyl}amino)cyclobut-3-ene-1,2-dione] |  | 6.35 | > 64 | 7.80 | 28 |  |
| CNC(=C[N+](=O)[O-])NCCSCc1ccc(CN(C)C)o1 [ranitidine, reference compound] | 0 |  |  |  |  | CNS − (CNS −: low BBB permeation predicted with Pe (10^−6 cm·s^−1) < 2.0) |
| O=c1c(NCCCCNc2c3c(nc4ccccc24)CCCC3)c(NCCCCNc2c3c(nc4ccccc24)CCCC3)c1=O [Compound 3c, Bis({4-[(1,2,3,4-tetrahydroacridin-9-yl)amino]butyl}amino)cyclobut-3-ene-1,2-dione] |  | 7.12 | 150 | 8.26 | 14 |  |
| COc1ccc2nc3c(c(NCCCCNc4c(NCCCCNc5c6c(nc7ccc(OC)cc57)CCCC6)c(=O)c4=O)c2c1)CCCC3 [Compound 5c, Bis({4-[(7-methoxy-1,2,3,4-tetrahydroacridin-9-yl)amino]butyl}amino)cyclobut-3-ene-1,2-dione] |  | 5.33 | 190 | 5.35 |  |  |
| CCN(C)C(=O)Oc1cccc([C@H](C)N(C)C)c1 [Rivastigmine, rivastigmine, reference compound] |  |  | 3400 |  |  |  |
| O=c1c(NCCCCCNc2c3c(nc4cc(Cl)ccc24)CCCC3)c(NCCCCCNc2c3c(nc4cc(Cl)ccc24)CCCC3)c1=O [Compound 4d, Bis({5-[(6-chloro-1,2,3,4-tetrahydroacridin-9-yl)amino]pentyl}amino)cyclobut-3-ene-1,2-dione] |  | 6.51 | > 64 | 8.09 | 38 |  |
| O=c1c(NCCCCCCCCNc2c3c(nc4ccccc24)CCCC3)c(NCCCCCCCCNc2c3c(nc4ccccc24)CCCC3)c1=O [Compound 3g, Bis({8-[(1,2,3,4-tetrahydroacridin-9-yl)amino]octyl}amino)cyclobut-3-ene-1,2-dione] |  | 7.30 | 6.6 | 7.14 | 0.7 |  |
| Nc1c2c(nc3cc(Cl)ccc13)CCCC2 [Compound 6-Cl-THA, 6-chlorotacrine, reference compound] |  |  | 43 |  |  |  |
| COc1ccc2nc3c(c(N)c2c1)CCCC3 [Compound 7-MEOTA, 7-methoxytacrine, reference compound] |  |  | 44 |  |  |  |
| O=c1c(NCCCCCCCCNc2c3c(nc4cc(Cl)ccc24)CCCC3)c(NCCCCCCCCNc2c3c(nc4cc(Cl)ccc24)CCCC3)c1=O [Compound 4g, Bis({8-[(6-chloro-1,2,3,4-tetrahydroacridin-9-yl)amino]octyl}amino)cyclobut-3-ene-1,2-dione] |  | < 4.00 | > 64 | 8.00 | ˃10,000 |  |
| Nc1c2c(nc3ccccc13)CCCC2 [THA, 9-amino-1,2,3,4-tetrahydroacridine, reference compound] | 6e-06 |  |  |  |  | CNS + (CNS +: high BBB permeation predicted with Pe (10^−6 cm·s^−1) > 4.0) |
| NS(=O)(=O)c1cc2c(cc1Cl)N=CNS2(=O)=O [chlorothiazide, reference compound] | 3e-07 |  |  |  |  | CNS − (CNS −: low BBB permeation predicted with Pe (10^−6 cm·s^−1) < 2.0) |
| O=c1c(NCCCNc2c3c(nc4ccccc24)CCCC3)c(NCCCNc2c3c(nc4ccccc24)CCCC3)c1=O [Compound 3b, Bis({3-[(1,2,3,4-tetrahydroacridin-9-yl)amino]propyl}amino)cyclobut-3-ene-1,2-dione] |  | 7.26 | > 32 | 8.08 | 6.5 |  |
| COc1ccc2nc3c(c(NCCCCCCCCNc4c(NCCCCCCCCNc5c6c(nc7ccc(OC)cc57)CCCC6)c(=O)c4=O)c2c1)CCCC3 [Compound 5g, Bis({8-[(7-methoxy-1,2,3,4-tetrahydroacridin-9-yl)amino]octyl}amino)cyclobut-3-ene-1,2-dione] |  | 5.54 | 3.5 | 6.31 | 5.9 |  |
| O=c1c(NCCCCCCCNc2c3c(nc4ccccc24)CCCC3)c(NCCCCCCCNc2c3c(nc4ccccc24)CCCC3)c1=O [Compound 3f, Bis({7-[(1,2,3,4-tetrahydroacridin-9-yl)amino]heptyl}amino)cyclobut-3-ene-1,2-dione] |  | 7.49 | 23 | 7.49 | 1 |  |
| COc1ccc2nc3c(c(NCCCNc4c(NCCCNc5c6c(nc7ccc(OC)cc57)CCCC6)c(=O)c4=O)c2c1)CCCC3 [Compound 5b, Bis({3-[(7-methoxy-1,2,3,4-tetrahydroacridin-9-yl)amino]propyl}amino)cyclobut-3-ene-1,2-dione] |  | 5.05 | > 64 | 5.96 | 8.1 |  |
